Where a name gives a salt, the structure may show the parent alone.
Columns and labels:
Format in all cases: cell-based
[1] = system: NCI-H292: human mucoepidermoid lung carcinoma cells; experiment: MTT assay on NCI-H292; conditions: 96 h incubation
Description: (§1) The analysis of the cytotoxic effects of the ADCs was carried out with various cell lines:
(§2) The cells were cultivated by the standard method as stated by the American Tissue Culture Collection (ATCC) or the Leibniz-lnstitut DSMZ-Deutsche Sammlung von Mikroorganismen und Zellkulturen GmbH (DSMZ) for the cell lines in question.
(§3) The cells were then incubated in an incubator at 37° C. and 5% carbon dioxide. […] To this end, the MTT reagent was incubated with the cells for 4 h, followed by lysis of the cells overnight by addition of the detergent. […] The measured data were used to calculate the ICo50 of the growth inhibition using the DRC (dose response curve). The proliferation of cells which were not treated with test substance but were otherwise identically treated was defined as the 100% figure.

[2] = system: SK-HEP-1: human liver cell cancer line; experiment: MTT assay on SK-HEP-1; conditions: SK-HEP1, 96 h, growth inhibition, 96 h incubation
Description: as §1, §2, §3

[3] = system: KPL4: human breast cancer cell line; experiment: MTT assay on KPL4; conditions: 96 h incubation
Description: as §1, §2, §3

[4] = NCI-H292, 96 h, growth inhibition

`CC(C)(C)[C@H](c1cc(-c2cc(F)ccc2F)cn1Cc1ccccc1)N(CCCN)C(=O)CSC[C@H](NC(=O)CCC(=O)O)C(=O)O` [Example M12, 4-{[(1R)-2-({2-[(3-Aminopropyl){(1R)-1-[1-benzyl-4-(2,5-difluorophenyl)-1H-pyrrol-2-yl]-2,2-dimethylpropyl}amino]-2-oxoethyl}sulphanyl)-1-carboxyethyl]amino}-4-oxobutanoic acid/trifluoroacetic acid (1:1)] was tested, and the IC50 [1, 4] was 33 nM and the IC50 [2] was 21.1 nM.
`CC(C)(C)[C@H](c1cc(-c2cc(F)ccc2F)cn1Cc1ccccc1)N(CC[C@H](N)C(=O)NCCNC(=O)CNC(=O)C(CC(=O)O)SC[C@H](N)C(=O)O)C(=O)CO` (stereo partly drawn) [Example M27, 4-[(2-{[2-({(2S)-2-Amino-4-[{(1R)-1-[1-benzyl-4-(2,5-difluorophenyl)-1H-pyrrol-2-yl]-2,2-dimethylpropyl}(glycoloyl)amino]butanoyl}amino)ethyl]amino}-2-oxoethyl)amino]-3-{[(2R)-2-amino-2-carboxyethyl]sulphanyl}-4-oxobutanoic acid/trifluoroacetic acid (1:1)] was tested, and the IC50 [1, 4] was 276 nM and the IC50 [2] was 89 nM.
`CC(C)(C)[C@H](c1cc(-c2cc(F)ccc2F)cn1Cc1ccccc1)N(CC[C@H](N)C(=O)NCCC(=O)NCCCC[C@H](N)C(=O)O)C(=O)CO` [Example M19, N^6—(N-{(2S)-2-Amino-4-[{(1R)-1-[1-benzyl-4-(2,5-difluorophenyl)-1H-pyrrol-2-yl]-2,2-dimethylpropyl}(glycoloyl)amino]butanoyl}-beta-alanyl)-L-lysine/trifluoroacetic acid (1:1)] gave an IC50 [1, 4] of 121 nM.
In the case of `CC(C)(C)[C@H](c1cc(-c2cc(F)ccc2F)cn1Cc1ccccc1)N(CC[C@H](N)C(=O)NCCC(=O)N[C@H](CCC(=O)O)C(=O)O)C(=O)CO` [Example M24, N-{(2S)-2-Amino-4-[{(1R)-1-[1-benzyl-4-(2,5-difluorophenyl)-1H-pyrrol-2-yl]-2,2-dimethylpropyl}(glycoloyl)amino]butanoyl}-beta-alanyl-D-glutamic acid/trifluoroacetic acid (1:1)], the IC50 [1, 4] is reported as 167 nM, the IC50 [2] is reported as 57.3 nM and the IC50 ([3]; KPL4, 96 h, growth inhibition) is reported as 500 nM.
For `CC(C)(C)[C@H](c1cc(-c2cc(F)ccc2F)cn1Cc1ccccc1)N(CC[C@H](N)C(=O)NCCNC(=O)CN1C(=O)CC(SC[C@H](N)C(=O)O)C1=O)C(=O)CO` (stereo partly drawn) [Example M1, S-[1-(2-{[2-({(2S)-2-Amino-4-[{(1R)-1-[1-benzyl-4-(2,5-difluorophenyl)-1H-pyrrol-2-yl]-2,2-dimethylpropyl}(glycoloyl)amino]butanoyl}amino)ethyl]amino}-2-oxoethyl)-2,5-dioxopyrrolidin-3-yl]-L-cysteine/trifluoroacetic acid (1:1)], the IC50 [1, 4] was 500 nM and the IC50 ([3]; KPL4, 96 h, growth inhibition) was 500 nM.
`CC(C)(C)[C@H](c1cc(-c2cc(F)ccc2F)cn1Cc1ccccc1)N(CC[C@H](N)C(=O)NCCNC(=O)CC[C@H](N)C(=O)O)C(=O)CO` [Example M18, N-[2-({(2S)-2-Amino-4-[{(1R)-1-[1-benzyl-4-(2,5-difluorophenyl)-1H-pyrrol-2-yl]-2,2-dimethylpropyl}(glycoloyl)amino]butanoyl}amino)ethyl]-L-glutamine/trifluoroacetic acid (1:1)] showed an IC50 [1, 4] of 35.5 nM.
In the case of `CC(C)(C)[C@H](c1cc(-c2cc(F)ccc2F)cn1Cc1ccccc1)N(CC[C@H](N)C(=O)NCCOCCN1C(=O)CC(SC[C@H](N)C(=O)O)C1=O)C(=O)CO` (stereo partly drawn) [Example M4, S-(1-{2-[2-({(2S)-2-Amino-4-[{(1R)-1-[1-benzyl-4-(2,5-difluorophenyl)-1H-pyrrol-2-yl]-2,2-dimethylpropyl}(glycoloyl)amino]butanoyl}amino)ethoxy]ethyl}-2,5-dioxopyrrolidin-3-yl)-L-cysteine/trifluoroacetic acid (1:1)], the IC50 [1, 4] is reported as 44.3 nM, the IC50 [2] is reported as 34.5 nM and the IC50 ([3]; KPL4, 96 h, growth inhibition) is reported as 176 nM.
`CC(C)(C)[C@H](c1cc(-c2cc(F)ccc2F)cn1Cc1ccccc1)N(CCCN)C(=O)CO` [Example M9, N-(3-Aminopropyl)-N-{(1R)-1-[1-benzyl-4-(2,5-difluorophenyl)-1H-pyrrol-2-yl]-2,2-dimethylpropyl}-2-hydroxyacetamide] gave an IC50 ([1]; NCI-H292, growth inhibition) of 0.27 nM and an IC50 ([3]; KPL4, growth inhibition) of 0.514 nM.
For `CC(C)(C)[C@H](c1cc(-c2cc(F)ccc2F)cn1Cc1ccccc1)N(CC[C@H](N)C(=O)NCCNC(=O)CNC(=O)CC(SC[C@H](N)C(=O)O)C(=O)O)C(=O)CO` (single isomer, unassigned) [Example M14], the IC50 [1, 4] was 174 nM, the IC50 [2] was 94.3 nM and the IC50 ([3]; KPL4, 96 h, growth inhibition) was 177 nM.
Work on `CC(C)(C)[C@H](c1cc(-c2cc(F)ccc2F)cn1Cc1ccccc1)N(CCCN)C(=O)CSC[C@H](N)C(=O)O` [Example M11, S-{2-[(3-Aminopropyl){(1R)-1-[1-benzyl-4-(2,5-difluorophenyl)-1H-pyrrol-2-yl]-2,2-dimethylpropyl}amino]-2-oxoethyl}-L-cysteine/trifluoroacetic acid (1:2)] yielded an IC50 [1, 4] of 0.0432 nM and an IC50 [2] of 0.189 nM.
`CC(C)(C)[C@H](c1cc(-c2cc(F)ccc2F)cn1Cc1ccccc1)N(CC[C@H](N)C(=O)O)C(=O)CO` [Example M17, (2S)-2-Amino-4-[{(1R)-1-[1-benzyl-4-(2,5-difluorophenyl)-1H-pyrrol-2-yl]-2,2-dimethylpropyl}(glycoloyl)amino]butanoic acid hydrochloride (1:1)] showed an IC50 [1, 4] of 7.35 nM.
Work on `CC(C)(C)[C@H](c1cc(-c2cc(F)ccc2F)cn1Cc1ccccc1)N(CC[C@H](N)C(=O)NCCNC(=O)CNC(=O)CC1SC[C@@H](C(=O)O)NC1=O)C(=O)CO` (stereo partly drawn) [Example M08, (3R)-6-{(11 S,15R)-11-Amino-15-[1-benzyl-4-(2,5-difluorophenyl)-1H-pyrrol-2-yl]-14-glycoloyl-16,16-dimethyl-2,5,10-trioxo-3,6,9,14-tetraazaheptadec-1-yl}-5-oxothiomorpholine-3-carboxylic acid/trifluoroacetic acid (1:1)] yielded an IC50 ([3]; KPL4, 96 h, growth inhibition) of 487 nM.
Compound `CC(C)(C)[C@H](c1cc(-c2cc(F)ccc2F)cn1Cc1ccccc1)N(CC[C@H](N)C(=O)NCCNC(=O)CNC(=O)C(CC(=O)O)SC[C@H](N)C(=O)O)C(=O)CO` (single isomer, unassigned) [Example M15] has an IC50 [1, 4] of 133 nM, an IC50 [2] of 49.8 nM and an IC50 ([3]; KPL4, 96 h, growth inhibition) of 169 nM.
For `CC(C)(C)[C@H](c1cc(-c2cc(F)ccc2F)cn1Cc1ccccc1)N(CC[C@H](N)C(=O)NCCNC(=O)CNC(=O)CC(SC[C@H](N)C(=O)O)C(=O)O)C(=O)CO` (single isomer, unassigned) [Example M13], the IC50 [1, 4] was 152 nM, the IC50 [2] was 68.1 nM and the IC50 ([3]; KPL4, 96 h, growth inhibition) was 169 nM.
In the case of `CC(C)(C)[C@H](c1cc(-c2cc(F)ccc2F)cn1Cc1ccccc1)N(CCCN)C(=O)CSC[C@H](NC(=O)CCOCCOCCOCCOCCNC(=O)CNC(=O)CC(SC[C@H](N)C(=O)O)C(=O)O)C(=O)O` (stereo partly drawn) [Example M20, (1R,4R,27R,33R)-1-Amino-32-(3-aminopropyl)-33-[1-benzyl-4-(2,5-difluorophenyl)-1H-pyrrol-2-yl]-34,34-dimethyl-6,9,25,31-tetraoxo-13,16,19,22-tetraoxa-3,29-dithia-7,10,26,32-tetraazapentatriacontane-1,4,27-tricarboxylic acid/trifluoroacetic acid (1:2)], the IC50 [1, 4] is reported as 149 nM, the IC50 [2] is reported as 181 nM and the IC50 ([3]; KPL4, 96 h, growth inhibition) is reported as 213 nM.
With `CC(C)(C)[C@H](c1cc(-c2cc(F)ccc2F)cn1Cc1ccccc1)N(CC[C@H](N)C(=O)NCCNC(=O)CSC[C@H](N)C(=O)O)C(=O)CO` [Example M7, S-(2-{[2-({(2S)-2-Amino-4-[{(1R)-1-[1-benzyl-4-(2,5-difluorophenyl)-1H-pyrrol-2-yl]-2,2-dimethylpropyl}(glycoloyl)amino]butanoyl}amino)ethyl]amino}-2-oxoethyl)-L-cysteine/trifluoroacetic acid (1:1)] the IC50 [1, 4] was 21.2 nM and the IC50 ([3]; KPL4, 96 h, growth inhibition) was 92.3 nM.
`CC(C)(C)[C@H](c1cc(-c2cc(F)ccc2F)cn1Cc1ccccc1)N(CC[C@H](N)C(=O)NCCC(=O)N[C@@H](CCC(=O)O)C(=O)O)C(=O)CO` [Example M23, N-{(2S)-2-Amino-4-[{(1R)-1-[1-benzyl-4-(2,5-difluorophenyl)-1H-pyrrol-2-yl]-2,2-dimethylpropyl}(glycoloyl)amino]butanoyl}-beta-alanyl-L-glutamic acid/trifluoroacetic acid (1:1)] was tested, and the IC50 [1, 4] was 500 nM, the IC50 [2] was 500 nM and the IC50 ([3]; KPL4, 96 h, growth inhibition) was 500 nM.

— patent US11685714B2, “Prodrugs of cytotoxic active agents having enzymatically cleavable groups” (BAYER PHARMA AKTIENGESELLSCHAFT, priority 2016, dated 2023)
